Read-outs that look alike come from different tables or passages of the source.
Legend:
full length Mps1 = molecular target: T1, full length Mps1 (Homo sapiens, UniProt P33981); experiment: Measurement of inhibition of Mps1 kinase (Caliper EZ reader, H236 peptide); assay type: biochemical; settings: full length Mps1, 60 min at room temperature
T1 construct: black 384-well low volume plates containing full length Mps1 (12.5 nM or 3 nM)
T1 sequence (P33981 1-857): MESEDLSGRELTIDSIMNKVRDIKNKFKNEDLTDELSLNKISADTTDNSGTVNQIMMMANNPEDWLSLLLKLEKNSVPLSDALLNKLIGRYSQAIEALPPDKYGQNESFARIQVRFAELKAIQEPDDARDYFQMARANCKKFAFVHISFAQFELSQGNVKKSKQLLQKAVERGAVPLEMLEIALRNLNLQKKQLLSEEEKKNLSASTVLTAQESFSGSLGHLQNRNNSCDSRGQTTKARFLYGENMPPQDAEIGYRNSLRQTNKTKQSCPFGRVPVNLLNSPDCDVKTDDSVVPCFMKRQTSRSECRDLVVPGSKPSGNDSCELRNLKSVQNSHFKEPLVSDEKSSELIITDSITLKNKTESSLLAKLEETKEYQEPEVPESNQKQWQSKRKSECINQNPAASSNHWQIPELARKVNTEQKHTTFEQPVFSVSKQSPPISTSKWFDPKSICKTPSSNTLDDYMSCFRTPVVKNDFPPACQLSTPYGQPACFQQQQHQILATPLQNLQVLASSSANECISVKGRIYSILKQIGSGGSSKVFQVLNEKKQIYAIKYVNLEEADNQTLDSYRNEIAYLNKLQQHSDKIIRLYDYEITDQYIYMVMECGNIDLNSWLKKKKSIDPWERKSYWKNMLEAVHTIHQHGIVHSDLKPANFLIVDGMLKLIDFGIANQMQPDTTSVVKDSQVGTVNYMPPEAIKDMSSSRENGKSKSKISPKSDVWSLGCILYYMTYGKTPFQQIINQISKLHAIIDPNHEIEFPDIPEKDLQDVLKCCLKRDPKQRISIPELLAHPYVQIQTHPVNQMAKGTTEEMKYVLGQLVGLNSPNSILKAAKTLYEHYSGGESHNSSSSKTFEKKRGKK
Description: The enzyme reaction (total volume 10 μl) was carried out in black 384-well low volume plates containing full length Mps1 (12.5 nM or 3 nM), fluorescent labelled peptide [known as H236, which has the sequence: 5FAM-[…]-CONH2] (5 μM), ATP ([…]), either DMSO (1% v/v) or the test compound (in the range 0.25 nM-100 μM in 1% DMSO) and assay buffer (50 mM HEPES (pH 7.0), 0.02% NaN3, 0.01% BSA, 0.1 mM Orthovandate, […], […], Roche protease inhibitor). The reaction was carried out for 60 min at room temperature and stopped by the addition of buffer (10 μl) containing 20 mM EDTA, 0.05% (v/v) Brij-35, in 0.1M HEPES-buffered saline (Free acid, Sigma, UK). The plate was read on a Caliper EZ reader II (Caliper Life Sciences).
The % inhibition of the compounds is calculated relative to the means of selected control wells. […] The % inhibitions at each concentration are then fitted to a 4 parameter logistic fit: y=(a+((b−a)/(1+((c/x^d)))) where a=asym min, b=asym max, c=IC50 and d=hill coefficient

HCT116 cells = experiment: MTT cell toxicity assay; assay type: cell-based; settings: Homo sapiens, HCT-116, 72 h incubation
Description: Cell proliferation assays were carried out using a colorimetric 3-(4,5-dimethylthiazol-2-yl)-2,5-diphenyltetrazolium bromide (MTT) assay (Sigma). 1.5×10^3 HCT116 cells, purchased from ATCC, were plated in 96-well plates at in 100 μL of culture medium in triplicates. Next day three fold dilutions of the compounds to be tested were made in culture medium so that, when diluted, the final concentration in the wells ranged from 0 to 10 μM. 25 μL of compounds dilutions in the medium was added to 100 μL of cells and incubated at 37° C. and 5% CO2 for 72 h. Cells were then incubated with 40 μL of 5 mg/mL MTT reagent at 37° C. for 3 h. The medium was carefully removed and crystals dissolved in 100 μL of DMSO. The absorbance was measured at 570 nm with the Wallac VICTOR2 1420 Multilabel Counter (PerkinElmer) and analysis performed to calculate the GI50 using GraphPad PRISM.

[1] = Human liver microsomal stability (HLM assay); assay type: in vitro ADME; settings: human liver microsomes 1 mg/mL, 10 μmol/L test compound, 37° C.
Description: The human liver microsomal stability of the compounds of the invention was tested using the following procedure:
Mixed gender pooled human liver microsomes were purchased from Tebu-bio (Peterborough, U.K.). Samples contained final concentrations of 1 mg/mL microsomal protein, 3 mmol/L MgCl2, 1 mmol/L NADPH, 2.5 mmol/L, UDP-glucuronic acid, and 10 mmol/L phosphate buffer (pH 7.4) (all purchased from Sigma Aldrich, Gilingham, U.K). Reactions, at 37° C., were started by addition of 10 μmol/L test compound and were terminated at 0, 15 and 30 minutes by the addition of 3 volumes of ice-cold methanol containing internal standard. Samples were centrifuged at 2,800×g for 30 minutes at 4° C. and the supernatants analyzed. Control incubations were prepared as above with omission of cofactors. […]

[2] = Pharmacokinetic profile in mice (Mouse PK); assay type: in vivo; settings: female, BALB/c, whole blood, 5 mg/kg, i.v. and p.o. at 5 mg/kg
Description: The pharmacokinetic profile of the compounds of the invention was assessed using the following procedure:
Female BALB/c mice (approximately 8 weeks old) from Charles River UK Ltd. (Margate, United Kingdom) were kept in a controlled environment with food and sterilized water available ad libitum. Animals weighed 20±3 g at the time of experiment. Dosing solutions were prepared by dissolving the compounds in 10% DMSO, 5% Tween 20 and 85% saline. The compounds were administered i.v. and p.o. at 5 mg/kg. Animals were warmed before receiving a single i.v. bolus injection into a lateral tail vein. P.o. administration was by gavage. Control animals received the vehicle alone. Groups of three mice were injected per dose route. Blood was collected at 5, 15 and 30 minutes and at 1, 2, 4 and 6 and 24 hours by serial sampling from the tail vein of individual mice after warming using sodium heparin-coated capillaries and 20 μl blood spotted onto Whatman FTA DMPK-B cards.
Calibration standards and QCs were prepared in tail vein blood. 20 μl blood spotted onto Whatman FTA DMPK-B cards. When dry, all standard, QC and sample spots were punched with a Harris Unicore 6 mm punch and 200 μl of methanol containing internal standard was added. Samples were centrifuged for 5 minutes and supernatant taken for analysis by LC-MS. […]

[3] = read-out: GI50 in the MTT assay
[4] = read-out: MTT assay HCT116 GI50

IC50 (full length Mps1) [nM]	HLM Assay (% of parent compound degraded at 30 minutes) [1] [%]	clearance [2] [mL/min/kg]	Compound	GI50 (HCT116 cells; [3]) [nM]	GI50 (HCT116 cells; [4]) [nM]
2.8	–	–	COc1cc(-c2nnnn2C)ccc1Nc1cc2c(cn1)cc(-c1cnn(C)c1)n2C(=O)OC(C)C [Example 2, Isopropyl 6-(2-methoxy-4-(1-methyl-1H-tetrazol-5-yl)phenylamino)-2-(1-methyl-1H-pyrazol-4-yl)-1H-pyrrolo[3,2-c]pyridine-1-carboxylate]	≤ 150	104
–	39	–	Cn1cc(C2=[N+](C(=O)OC(C)(C)C)c3cc(Nc4ccc(-c5ccnn5C)cc4Cl)ncc3C2)cn1 [Comparator 3, reference compound]	–	548
1.2	–	< 3.5	COc1cc(-c2cnnn2C)ccc1Nc1cc2c(cn1)cc(-c1cnn(C)c1)n2C(=O)OC(C)C [Example 1, Isopropyl 6-(2-methoxy-4-(1-methyl-1H-1,2,3-triazol-5-yl)phenylamino)-2-(1-methyl-1H-pyrazol-4-yl)-1H-pyrrolo[3,2-c]pyridine-1-carboxylate]	≤ 150	59.4
–	22.1	5	Cn1cc(C2=[N+](C(=O)OC(C)(C)C)c3cc(Nc4ccc(-c5nncn5C)cc4Cl)ncc3C2)cn1 [Comparator 1, reference compound]	–	360
